The values below come from patent publication US20100168102A9, “Amide Derivatives as Kinase Inhibitors” (Devgen NV, priority 2005, published 2010).

The target in one test is T1, PKC epsilon (Homo sapiens, UniProt Q02156).
T1 construct: purchased Invitrogen P2282
T1 sequence (Q02156 1-737): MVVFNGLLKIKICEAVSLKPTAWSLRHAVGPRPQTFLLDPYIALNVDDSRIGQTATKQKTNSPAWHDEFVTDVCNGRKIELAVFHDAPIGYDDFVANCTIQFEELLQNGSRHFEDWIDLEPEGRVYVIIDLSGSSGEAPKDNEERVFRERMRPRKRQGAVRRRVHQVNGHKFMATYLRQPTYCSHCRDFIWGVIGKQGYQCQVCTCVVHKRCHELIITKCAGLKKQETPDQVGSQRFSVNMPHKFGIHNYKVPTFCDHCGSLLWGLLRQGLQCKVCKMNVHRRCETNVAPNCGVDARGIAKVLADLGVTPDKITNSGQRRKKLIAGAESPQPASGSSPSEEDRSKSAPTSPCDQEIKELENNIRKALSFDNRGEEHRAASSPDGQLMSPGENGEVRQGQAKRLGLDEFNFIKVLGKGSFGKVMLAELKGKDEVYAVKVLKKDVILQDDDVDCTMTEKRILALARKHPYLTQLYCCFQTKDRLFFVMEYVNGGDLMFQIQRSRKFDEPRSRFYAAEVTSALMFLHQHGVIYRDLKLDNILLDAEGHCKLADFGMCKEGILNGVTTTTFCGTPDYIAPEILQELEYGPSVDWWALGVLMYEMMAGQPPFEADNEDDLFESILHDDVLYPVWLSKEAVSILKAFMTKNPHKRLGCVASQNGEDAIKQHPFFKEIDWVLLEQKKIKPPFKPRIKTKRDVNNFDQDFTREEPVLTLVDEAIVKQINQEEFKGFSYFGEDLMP
Briefly: Biochemical assay for PKC epsilon (fluorescence polarization, Protein Kinase C Assay Kit, Red). Conditions: Table 2, compounds of Formula XIII; read-out: IC50 μM PKCε. A digest of the protocol: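 PKC epsilon at 10 ng/ml final was preincubated 30 min at room temperature with compound in HEPES pH 7.4 with DTT and Triton X-100. ATP/protein substrate was then added in buffer with MgCl2 and CaCl2 for 80 min. The reaction was stopped with EDTA, phosphorylation was detected by fluorescence polarization with rhodamine tracer and anti-phosphoserine antibody, and IC50 values came from curve fits.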
(In general: In fluorescence polarisation assays a small probe gives low polarisation when free and higher when bound to something large.)

Another test concerns the target T2, human ROCKα/ROCKII mix (Homo sapiens, UniProt O75116).
T2 construct: purchased Upstate Biotechnology 14-451
Briefly: Biochemical assay for ROCK (fluorescence polarization, ROCK IMAP Kit). Conditions: Table 2, compounds of Formula XIII.

T2 sequence (O75116 11-552 limits assumed): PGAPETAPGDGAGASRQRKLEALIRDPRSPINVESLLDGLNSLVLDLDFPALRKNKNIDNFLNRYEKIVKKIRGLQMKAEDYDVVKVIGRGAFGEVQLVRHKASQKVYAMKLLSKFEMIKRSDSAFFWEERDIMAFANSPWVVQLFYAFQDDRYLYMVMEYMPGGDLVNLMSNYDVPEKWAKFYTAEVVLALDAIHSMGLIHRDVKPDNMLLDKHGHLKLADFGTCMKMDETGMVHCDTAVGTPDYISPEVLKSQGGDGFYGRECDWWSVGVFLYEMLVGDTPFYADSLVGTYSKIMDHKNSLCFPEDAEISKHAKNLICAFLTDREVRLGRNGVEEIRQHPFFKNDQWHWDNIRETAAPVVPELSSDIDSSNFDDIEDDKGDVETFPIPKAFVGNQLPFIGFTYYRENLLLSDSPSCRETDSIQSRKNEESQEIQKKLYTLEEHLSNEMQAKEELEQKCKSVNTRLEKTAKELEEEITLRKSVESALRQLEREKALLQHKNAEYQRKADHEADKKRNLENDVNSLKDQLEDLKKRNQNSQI

For `NC(CNC(=O)C1CC1)c1ccc(C(=O)Nc2ccncc2)cc1` (centres unmarked) [Compound 39, 4-[1-Amino-2-(cyclopropanecarbonyl-amino)-ethyl]-N-pyridin-4-yl-benzamide], the IC50 at PKC epsilon and at human ROCKα/ROCKII mix was 0.5 to 5 µM throughout.

As to `CC1CC1C(=O)NCC(N)c1ccc(C(=O)Nc2ccncc2)cc1` (centres unmarked) [Compound 40, 4-{1-Amino-2-[(2-methyl-cyclopropanecarbonyl)-amino]-ethyl}-N-pyridin-4-yl-benzamide], the IC50 on PKC epsilon and against human ROCKα/ROCKII mix was 0.5 to 5 µM in each case.

With `NC(CNC(=O)C1CCC1)c1ccc(C(=O)Nc2ccncc2)cc1` (centres unmarked) [Compound 41, 4-[1-Amino-2-(cyclobutanecarbonyl-amino)-ethyl]-N-pyridin-4-yl-benzamide], the IC50 on PKC epsilon and against human ROCKα/ROCKII mix was 0.5 to 5 µM throughout.

`NC(CNC(=O)C1CCCC1)c1ccc(C(=O)Nc2ccncc2)cc1` (centres unmarked) [Compound 42, 4-[1-Amino-2-(cyclopentanecarbonyl-amino)-ethyl]-N-pyridin-4-yl-benzamide]: the IC50 at PKC epsilon and at human ROCKα/ROCKII mix was 0.5 to 5 µM each time.

As to `NC(CNC(=O)C1CCCCC1)c1ccc(C(=O)Nc2ccncc2)cc1` (centres unmarked) [Compound 43, 4-[1-Amino-2-(cyclohexanecarbonyl-amino)-ethyl]-N-pyridin-4-yl-benzamide], the 50% inhibitory concentration (IC50) at PKC epsilon is 5 to 50 µM; on human ROCKα/ROCKII mix, 0.5 to 5 µM.

Regarding `NC(CNC(=O)CC1CC1)c1ccc(C(=O)Nc2ccncc2)cc1` (centres unmarked) [Compound 46, 4-[1-Amino-2-(2-cycopropyl-acetylamino)-ethyl]-N-pyridin-4-yl-benzamide], the IC50 at PKC epsilon and against human ROCKα/ROCKII mix was 0.5 to 5 µM throughout.

With `NC(CNC(=O)CC1CCCC1)c1ccc(C(=O)Nc2ccncc2)cc1` (centres unmarked) [Compound 47, 4-[1-Amino-2-(2-cyclopentyl-acetylamino)-ethyl]-N-pyridin-4-yl-benzamide], the IC50 on PKC epsilon and against human ROCKα/ROCKII mix was 0.5 to 5 µM in each case.

Regarding `NC(CNC(=O)CC1C=CCC1)c1ccc(C(=O)Nc2ccncc2)cc1` (centres unmarked) [Compound 48, 4-[1-Amino-2-(2-cyclopent-2-enyl-acetylamino)-ethyl]-N-pyridin-4-yl-benzamide], the results for the 50% inhibitory concentration (IC50) on PKC epsilon and on human ROCKα/ROCKII mix were 0.5 to 5 µM and 0.05 to 0.5 µM, respectively.

With `NC(CNC(=O)CC1Cc2ccccc2C1)c1ccc(C(=O)Nc2ccncc2)cc1` (centres unmarked) [Compound 49, 4-[1-Amino-2-(2-indan-2-yl-acetylamino)-ethyl]-N-pyridin-4-yl-benzamide], the concentration for half-maximal inhibition (IC50) on PKC epsilon was in the range of 0.5 to 5 µM; against human ROCKα/ROCKII mix it was 0.05 to 0.5 µM.

Turning to `NC(CNC(=O)CC1CCCCC1)c1ccc(C(=O)Nc2ccncc2)cc1` (centres unmarked) [Compound 50, 4-[1-Amino-2-(2-cyclohexyl-acetylamino)-ethyl]-N-pyridin-4-yl-benzamide], the IC50 on PKC epsilon and at human ROCKα/ROCKII mix was 0.5 to 5 µM in each case.

Take `NC(CNC(=O)CCC1CCCC1)c1ccc(C(=O)Nc2ccncc2)cc1` (centres unmarked) [Compound 51, 4-[1-Amino-2-(3-cyclopentyl-propionylamino)-ethyl]-N-pyridin-4-yl-benzamide]: the figures for the IC50 on PKC epsilon and against human ROCKα/ROCKII mix were 0.5 to 5 µM and 0.05 to 0.5 µM, respectively.

Regarding `NC(CNC(=O)CCC1CCCCC1)c1ccc(C(=O)Nc2ccncc2)cc1` (centres unmarked) [Compound 52, 4-[1-Amino-2-(3-cyclohexyl-propionylamino)-ethyl]-N-pyridin-4-yl-benzamide], the results for the IC50 at PKC epsilon and against human ROCKα/ROCKII mix were 0.5 to 5 µM and 0.05 to 0.5 µM, respectively.

For the compound `CN(C)CCCC(=O)NCC(N)c1ccc(C(=O)Nc2ccncc2)cc1` (centres unmarked) [Compound 53, 4-[1-Amino-2-(4-dimethylamino-butyrylamino)-ethyl]-N-pyridin-4-yl-benzamide], the IC50 on PKC epsilon lay in the range of 5 to 50 µM; against human ROCKα/ROCKII mix, 0.5 to 5 µM.

As for `N#CCC(=O)NCC(N)c1ccc(C(=O)Nc2ccncc2)cc1` (centres unmarked) [Compound 54, 4-[1-Amino-2-(2-cyano-acetylamino)-ethyl]-N-pyridin-4-yl-benzamide], the values for the IC50 at PKC epsilon and on human ROCKα/ROCKII mix were 0.5 to 5 µM and 0.05 to 0.5 µM, respectively.

Turning to `NC(CNC(=O)CNC(=O)c1ccccc1)c1ccc(C(=O)Nc2ccncc2)cc1` (centres unmarked) [Compound 55, 4-[1-Amino-2-(2-benzoylamino-acetylamino)-ethyl]-N-pyridin-4-yl-benzamide], the half-maximal inhibitory concentration (IC50) on PKC epsilon is 5 to 50 µM; on human ROCKα/ROCKII mix, 0.05 to 0.5 µM.

Take `NC(CNC(=O)CNC(=O)c1ccco1)c1ccc(C(=O)Nc2ccncc2)cc1` (centres unmarked) [Compound 56, Furan-2-carboxylic acid ({2-amino-2-[4-(pyridin-4-ylcarbamoyl)-phenyl]-ethylcarbamoyl}-methyl)-amide]: the IC50 on PKC epsilon lay within 5 to 50 µM; against human ROCKα/ROCKII mix, 0.05 to 0.5 µM.

Turning to `COCC(=O)NCC(N)c1ccc(C(=O)Nc2ccncc2)cc1` (centres unmarked) [Compound 57, 4-[1-Amino-2-(2-methoxy-acetylamino)-ethyl]-N-pyridin-4-yl-benzamide], the half-maximal inhibitory concentration (IC50) lay in the range of 5 to 50 µM on PKC epsilon and 0.5 to 5 µM against human ROCKα/ROCKII mix.

In the case of `COCCC(=O)NCC(N)c1ccc(C(=O)Nc2ccncc2)cc1` (centres unmarked) [Compound 58, 4-[1-Amino-2-(3-methoxy-propionylamino)-ethyl]-N-pyridin-4-yl-benzamide], the half-inhibitory concentration (IC50) is 5 to 50 µM at PKC epsilon and 0.5 to 5 µM against human ROCKα/ROCKII mix.

On to `CC(C)=NOC(C)C(=O)NCC(N)c1ccc(C(=O)Nc2ccncc2)cc1` (centres unmarked) [Compound 59, 4-[1-Amino-2-(2-isopropylideneaminooxy-propionylamino)-ethyl]-N-pyridin-4-yl-benzamide], for which the IC50 at PKC epsilon and against human ROCKα/ROCKII mix was 0.5 to 5 µM each time.

For `CC(=NOCC(=O)NCC(N)c1ccc(C(=O)Nc2ccncc2)cc1)c1ccccc1` (centres unmarked) [Compound 60, 4-{1-Amino-2-[2-(1-phenyl-ethylideneaminooxy)-acetylamino]-ethyl}-N-pyridin-4-yl-benzamide], the 50% inhibitory concentration (IC50) at PKC epsilon lay in the range of 0.5 to 5 µM; at human ROCKα/ROCKII mix it was 0.05 to 0.5 µM.

`Cc1ccsc1C=NOCC(=O)NCC(N)c1ccc(C(=O)Nc2ccncc2)cc1` (centres unmarked) [Compound 61, 4-{1-Amino-2-[2-(3-methyl-thiophen-2-ylmethyleneaminooxy)-acetylamino]-ethyl}-N-pyridin-4-yl-benzamide]: the 50% inhibitory concentration (IC50) is 5 to 50 µM on PKC epsilon and 0.5 to 5 µM against human ROCKα/ROCKII mix.

In the case of `CCOCC(=O)NCC(N)c1ccc(C(=O)Nc2ccncc2)cc1` (centres unmarked) [Compound 62, 4-[1-amino-2-(2-ethoxy-acetylamino)-ethyl]-N-pyridin-4-yl-benzamide], the 50% inhibitory concentration (IC50) at PKC epsilon lay within 5 to 50 µM; against human ROCKα/ROCKII mix, 0.5 to 5 µM.

In the case of `CCSCC(=O)NCC(N)c1ccc(C(=O)Nc2ccncc2)cc1` (centres unmarked) [Compound 63, 4-[1-amino-2-(2-ethylsulfanyl-acetylamino)-ethyl]-N-pyridin-4-yl-benzamide], the values for the IC50 at PKC epsilon and at human ROCKα/ROCKII mix were 0.5 to 5 µM and 0.05 to 0.5 µM, respectively.

As for `NC(CNC(=O)CSc1ncccn1)c1ccc(C(=O)Nc2ccncc2)cc1` (centres unmarked) [Compound 64, 4-{1-amino-2-[2-(pyrimidin-2-ylsulfanyl)-acetylamino]-ethyl}-N-pyridin-4-yl-benzamide], the concentration for half-maximal inhibition (IC50) was 5 to 50 µM on PKC epsilon and 0.5 to 5 µM against human ROCKα/ROCKII mix.

In the case of `NC(CNC(=O)C1CCOC1)c1ccc(C(=O)Nc2ccncc2)cc1` (centres unmarked) [Compound 65, Tetrahydro-furan-3-carboxylic acid {2-amino-2-[4-(pyridin-4-ylcarbamoyl)-phenyl]-ethyl}-amide], the IC50 on PKC epsilon and against human ROCKα/ROCKII mix was 0.5 to 5 µM in each case.

Turning to `NC(CNC(=O)C1CCCO1)c1ccc(C(=O)Nc2ccncc2)cc1` (centres unmarked) [Compound 66, Tetrahydro-furan-2-carboxylic acid {2-amino-2-[4-(pyridin-4-ylcarbamoyl)-phenyl]-ethyl}-amide], the concentration for half-maximal inhibition (IC50) on PKC epsilon fell in the range of 5 to 50 µM; against human ROCKα/ROCKII mix, 0.5 to 5 µM.

On to `NC(CNC(=O)[C@@H]1CCC(=O)N1)c1ccc(C(=O)Nc2ccncc2)cc1` (stereo partly drawn) [Compound 67, 5-Oxo-pyrrolidine-2-(S)-carboxylic acid {2-amino-2-[4-(pyridin-4-ylcarbamoyl)-phenyl]-ethyl}-amide], for which the IC50 on PKC epsilon lay in the range of 5 to 50 µM; against human ROCKα/ROCKII mix it was 0.5 to 5 µM.

`NC(CNC(=O)[C@H]1CCC(=O)N1)c1ccc(C(=O)Nc2ccncc2)cc1` (stereo partly drawn) [Compound 68, 5-Oxo-pyrrolidine-2-(R)-carboxylic acid {2-amino-2-[4-(pyridin-4-ylcarbamoyl)-phenyl]-ethyl}-amide]: the 50% inhibitory concentration (IC50) fell in the range of 5 to 50 µM at PKC epsilon and 0.05 to 0.5 µM on human ROCKα/ROCKII mix.

For the compound `NC(CNC(=O)c1ccc2ccccc2c1)c1ccc(C(=O)Nc2ccncc2)cc1` (centres unmarked) [Compound 70], the IC50 at PKC epsilon lay within 5 to 50 µM; against human ROCKα/ROCKII mix, 0.05 to 0.5 µM.

Take `NC(CNC(=O)c1cccc2ccccc12)c1ccc(C(=O)Nc2ccncc2)cc1` (centres unmarked) [Compound 71]: the IC50 on PKC epsilon and on human ROCKα/ROCKII mix was 0.5 to 5 µM in each case.

`COc1ccccc1C(=O)NCC(N)c1ccc(C(=O)Nc2ccncc2)cc1` (centres unmarked) [Compound 72, 4-[1-amino-2-(2-methoxy-benzoylamino)-ethyl]-N-pyridin-4-yl-benzamide]: the half-inhibitory concentration (IC50) at PKC epsilon and at human ROCKα/ROCKII mix was 0.5 to 5 µM in each case.

What is called IC50 is the concentration that gives 50% inhibition.
